Source: ChEMBL document CHEMBL6071133, “Discovery of novel penetrating peptides able to target human leukemia and lymphoma for enhanced PROTAC delivery” (Eur J Med Chem, 2024)
One block for each molecule: values may come before it. Calls of active or inactive are those of the source. No cut-off for these calls is given here. Square brackets hold non-standard residues; d marks the D form. Peptide text beside a SMILES is read from it. Bta = N[C@@H](Cc1csc2ccccc12)C(=O)O

Assays:
[1] = Drug uptake in human CCRF-CEM cells assessed as membrane penetration by measuring increase in fluorescence intensity at 5 umol/L incubated for 2 hrs by flow cytometry relative to C9C; type: ADME, cell-based; details: 5 µM, dose 5 µmol/L
[2] = Drug uptake in human K562 cells assessed as membrane permeability at 5 umol/L incubated for 2 hrs by flow cytometry relative to C9C; type: ADME, cell-based; details: k562, 2 h, 5 µM, dose 5 µmol/L
[3] = Drug uptake in human KU812 cells assessed as membrane permeability at 5 umol/L incubated for 2 hrs by flow cytometry relative to C9C; type: ADME, cell-based; details: ku812, 2 h, 5 µM, dose 5 µmol/L
[4] = Drug uptake in human THP-1 cells assessed as increase in fluorescence intensity at 10 umol/L incubated for 2 hrs by cell imaging based fluorescence microscopic analysis; type: ADME; details: thp-1, 2 h, 10 µM, dose 10 µmol/L
[5] = Stability of the compound in fetal bovine serum assessed as parent compound remaining measured after 36 hrs by HPLC-MS analysis; type: ADME, cell-free, Bos taurus; details: cattle, read-out: Stability
K562 [6] = experiment: Induction of apoptosis in human K562 cells assessed as late apoptotic cells at PROTAC to compound concentration ratio of 1:5 incubated for 48 hrs in presence of 3 umol/L IMA-PROTAC by AnnexinV-FITC/PI staining based flow cytometry (reference value: 0.01%); type: functional
K562 [7] = experiment: Increase in membrane permeability of IMA-PROTAC in human K562 cells assessed as potentiation of IMA-PROTAC-induced inhibition of STAT5 phosphorylation at PROTAC to compound concentration ratio of 1:5 incubated for 48 hrs in presence of 3 umol/L IMA-PROTAC by western blot analysis; type: functional, cell-based
[8] = Interaction with IMA-PROTAC assessed as induction of assembly formation by transmission electron microscopy; type: physicochemical
[9] = Cytotoxicity against human KU812 cells assessed as cell viability at 0.01 to 100 uM incubated for 48 hrs by MTT assay; type: toxicity, cell-based; details: dose 0.01-100 µM, read-out: Activity
K562 [10] = experiment: Induction of apoptosis in human K562 cells assessed as viable cells at PROTAC to compound concentration ratio of 1:5 incubated for 48 hrs in presence of 3 umol/L IMA-PROTAC by AnnexinV-FITC/PI staining based flow cytometry (reference value: 99.85%); type: functional
[11] = Cytotoxicity against human K562 cells assessed as cell viability at 0.01 to 100 uM incubated for 48 hrs by MTT assay; type: toxicity, cell-based; details: dose 0.01-100 µM, read-out: Activity
K562 [12] = experiment: Increase in membrane permeability of IMA-PROTAC in human K562 cells assessed as potentiation of IMA-PROTAC-induced Bcr-Abl degradation at PROTAC to compound concentration ratio of 1:3 incubated for 48 hrs in presence of 3 umol/L IMA-PROTAC by western blot analysis; type: functional, cell-based
[13] = Interaction with IMA-PROTAC assessed as induction of formation of micelle cluster with uniform and distinct spherical morphology by transmission electron microscopy; type: physicochemical
K562 [14] = experiment: Induction of apoptosis in human K562 cells assessed as necrotic cells at PROTAC to compound concentration ratio of 1:5 incubated for 48 hrs in presence of 3 umol/L IMA-PROTAC by AnnexinV-FITC/PI staining based flow cytometry (reference value: 0.1%); type: functional
[15] = Stability of the compound in fetal bovine serum assessed as parent compound remaining measured after 8 hrs by HPLC-MS analysis; type: ADME, cell-free, Bos taurus; details: cattle, read-out: Stability
[16] = Cytotoxicity against human THP-1 cells assessed as reduction in cell viability at higher concentrations incubated for 48 hrs by MTT assay; type: toxicity, cell-based; details: read-out: INH
[17] = Stability of the compound in fetal bovine serum assessed as parent compound remaining measured after 12 hrs by HPLC-MS analysis; type: ADME, cell-free, Bos taurus; details: cattle, read-out: Stability
[18] = Increase in membrane permeability of IMA-PROTAC in human K562 cells assessed as potentiation of IMA-PROTAC-induced Bcr-Abl degradation at PROTAC to compound concentration ratio of 1:5 incubated for 48 hrs in presence of 3 umol/L IMA-PROTAC by western blot analysis (reference value: 40%); type: functional
[19] = Cytotoxicity against human CCRF-CEM cells assessed as cell viability at 0.01 to 100 uM incubated for 48 hrs by MTT assay; type: toxicity, cell-based; details: dose 0.01-100 µM, read-out: Activity
K562 [20] = experiment: Induction of apoptosis in human K562 cells assessed as early apoptotic cells at PROTAC to compound concentration ratio of 1:5 incubated for 48 hrs in presence of 3 umol/L IMA-PROTAC by AnnexinV-FITC/PI staining based flow cytometry (reference value: 0.03%); type: functional

fold change (FC) [1]: 3.1
Compound: CC(C)C[C@@H]1NC(=O)[C@H](Cc2c[nH]c3ccccc23)NC(=O)[C@H](Cc2ccc(O)cc2)NC(=O)[C@H](Cc2ccccc2)NC(=O)CNC(=O)[C@H](CCCCN)NC(=O)[C@H](CC(=O)O)NC(=O)[C@H](CO)NC(=O)[C@H](CCCNC(=N)N)NC1=O (cyclo(DKGFYWLRS))

Drug uptake [2]: 65%
Drug uptake [3]: 65%
Compound: CC(C)C[C@H](NC(=O)[C@H](Cc1csc2ccccc12)NC(=O)[C@H](Cc1ccc(O)cc1)NC(=O)[C@H](Cc1ccccc1)NC(=O)[C@H](CCCNC(=N)N)NC(=O)[C@@H](N)CS)C(=O)N[C@@H](CCCNC(=N)N)C(=O)N[C@@H](CO)C(=O)N[C@@H](CS)C(=O)O (H-CRFY[Bta]LRSC-OH)

fold change (FC) [1]: 4.78
Compound: CC(C)C[C@H](NC(=O)[C@H](Cc1csc2ccccc12)NC(=O)[C@H](Cc1ccc(O)cc1)NC(=O)[C@H](Cc1ccccc1)NC(=O)CNC(=O)[C@@H](N)CS)C(=O)N[C@@H](CCCNC(=N)N)C(=O)N[C@@H](CO)C(=O)N[C@@H](CS)C(=O)O (H-CGFY[Bta]LRSC-OH)

Drug uptake [4]: Active
remaining at 36 h [5]: 35%
Activity [8]: Not Active
Activity [13]: Not Active
remaining at 8 h [15]: 100%
remaining at 12 h [17]: 80%
Compound: CC(C)C[C@H](NC(=O)[C@H](Cc1c[nH]c2ccccc12)NC(=O)[C@H](Cc1ccc(O)cc1)NC(=O)[C@H](Cc1ccccc1)NC(=O)CNC(=O)[C@@H](N)CS)C(=O)N[C@@H](CCCNC(=N)N)C(=O)N[C@@H](CO)C(=O)N[C@@H](CS)C(=O)O (H-CGFYWLRSC-OH)
Activity (K562 [6]): 7.46%
Activity (K562 [7]): Active
viability at 48 h, up to 100 µM [9]: > 75%
Activity (K562 [10]): 86.18%
viability at 48 h, up to 100 µM [11]: > 75%
Activity (K562 [12]): Active
Activity (K562 [14]): 0.09%
cytotoxicity at 48 h [16]: ~50%
Activity [18]: 60%
viability at 48 h, up to 100 µM [19]: > 75%
Activity (K562 [20]): 6.26%
